The values below come from patent US20260374754A1, “N-((ISOQUINOLIN-6-YL)METHYL)-1H-PYRAZOLE-4-CARBOXAMIDE DERIVATIVES AS PLASMA KALLIKREIN INHIBITORS FOR THE TREATMENT OF HEREDITARY ANGIODEMA” (Takeda Pharmaceutical Company Limited, priority 2022, published 2026).

Structures can show the parent of a compound that is named as a salt.

Sequence of human activated kallikrein enzyme (P03952 391-638 limits assumed): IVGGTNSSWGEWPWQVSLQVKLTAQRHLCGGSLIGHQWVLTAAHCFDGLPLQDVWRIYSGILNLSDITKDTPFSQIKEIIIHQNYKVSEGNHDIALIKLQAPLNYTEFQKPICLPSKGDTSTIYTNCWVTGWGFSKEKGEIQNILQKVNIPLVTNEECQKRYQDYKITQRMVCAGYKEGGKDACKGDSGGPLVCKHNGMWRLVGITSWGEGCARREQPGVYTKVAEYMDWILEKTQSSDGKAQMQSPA
Sequence of human activated kallikrein enzyme (P03952 20-390 partner limits assumed): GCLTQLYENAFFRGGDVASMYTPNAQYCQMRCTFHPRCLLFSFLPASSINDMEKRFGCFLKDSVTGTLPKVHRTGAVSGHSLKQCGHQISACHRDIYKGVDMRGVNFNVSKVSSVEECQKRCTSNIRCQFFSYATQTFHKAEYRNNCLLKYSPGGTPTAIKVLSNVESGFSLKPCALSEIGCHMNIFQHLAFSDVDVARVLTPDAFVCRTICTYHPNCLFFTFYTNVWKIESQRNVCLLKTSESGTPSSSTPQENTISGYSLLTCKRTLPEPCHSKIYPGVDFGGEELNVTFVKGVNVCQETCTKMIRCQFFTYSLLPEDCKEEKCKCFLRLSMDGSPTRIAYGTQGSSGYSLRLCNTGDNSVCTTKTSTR

The experiment concerns the target human activated kallikrein enzyme (Homo sapiens, UniProt P03952). Put plainly: Inhibition of human activated plasma kallikrein, fluorogenic PFR-AMC substrate, 500 pM enzyme format. In kind it is biochemical. The following applies: 500 pM activated kallikrein; 300 μM PFR-AMC; 30 min preincubation; 10 min room temperature; pH 7.5; read-out: Primary Dose Response Assay: Average EC50. The method, then: Compounds were evaluated for inhibition of the human activated kallikrein enzyme in two formats of an assay employing a fluorogenic peptide substrate. In one assay format, the concentrations of reagents were as follows: 20 mM Tris pH 7.5, 1 mM EDTA, 150 mM sodium chloride, 0.1% PEG-400, 0.1% Triton X-100, 500 pM activated kallikrein enzyme, 300 μM Pro-Phe-Arg-7-amido-4-methylcoumarin (PFR-AMC) substrate. Prior to reaction initiation with substrate, enzyme and inhibitors were preincubated for 30 min at room temperature. After initiation with substrate, reactions were incubated for 10 min at room temperature and fluorescence emission at 460 nm from 380 nm excitation measured with a microplate reader. In another assay format, the concentrations of reagents were as follows: 20 mM Tris pH 7.5, 1 mM EDTA, 150 mM sodium chloride, 0.1% PEG-400, 0.1% Triton X-100, 5 pM activated kallikrein enzyme, 300 uM PFR-AMC substrate. Prior to reaction initiation with substrate, enzyme and inhibitors were preincubated for 30 min at room temperature. After initiation with substrate, reactions were incubated for 18 hr at room temperature and fluorescence emission at 460 nm from 380 nm excitation measured with a microplate reader.
Table 35 provides the results of the assay in the format with 500 pM activated kallikrein assay.
`CCOC(=O)[C@H]1[C@@H]2CN(C(=O)Cc3ccc(Cn4cc(C(=O)NCc5c(C)cc6c(N)nccc6c5C)cn4)cc3)C[C@@H]21` [Example 212, ethyl (1R,SS,6r)-3-(2-(4-((4-(((1-amino-5,7-dimethylisoquinolin-6-y1)methyl)carbamoyl)-1H-pyrazol-1-yl)methyl)phenyl)acetyl)-3-azabicyclo[3.1.0]hexane-6-carboxylate]: the EC50 fell in the range of 10 to 100 nM.

On to `Cc1cc2c(N)nccc2c(C)c1CNC(=O)c1cnn(C(F)(F)c2ccccc2)c1` [Example I-472, N-((1-amino-5,7-dimethylisoquinolin-6-yl)methyl)-1-(difluoro(phenyl)methyl)-1H-pyrazole-4-carboxamide], for which the EC50 fell in the range of 100 to 1000 nM.

Consider `Cc1cc2c(N)nccc2c(C)c1CNC(=O)c1cnn(Cc2cn3cc(C(F)(F)F)ccc3n2)c1` [Example 201, N-((1-amino-5,7-dimethylisoquinolin-6-yl)methyl)-1-((6-(trifluoromethyl)imidazo[1,2-a]pyridin-2-yl)methyl)-1H-pyrazole-4-carboxamide], for which the EC50 is under 1 nM.

For `CCOC(=O)N(Cc1ccc(Cn2ccccc2=O)cc1)c1cc(NCc2c(C)cc3c(N)nccc3c2C)ncn1` [Example I-480, ethyl (6-(((1-amino-5,7-dimethylisoquinolin-6-yl)methyl)amino)pyrimidin-4-yl)(4-((2-oxopyridin-1(2H)-yl)methyl)benzyl)carbamate], the EC50 is 100 to 1000 nM.

`Cc1cc2c(N)nccc2c(C)c1CNC(=O)c1cnn(C(CN)c2ccccc2)c1` (stereo not shown) [Example 180, 1-(2-amino-1-phenylethyl)-N-((1-amino-5,7-dimethylisoquinolin-6-yl)methyl)-1H-pyrazole-4-carboxamide]: the EC50 lay within 100 to 1000 nM.

In the case of `CCOC(=O)Nc1nccc2c(C)c(CNc3cc(NCc4ccc(Cn5ccccc5=O)cc4)ncn3)c(C)cc12` [Example 249, ethyl (5,7-dimethyl-6-(((6-((4-((2-oxopyridin-1(2H)-yl)methyl)benzyl)amino)pyrimidin-4-yl)amino)methyl)isoquinolin-1-yl)carbamate], the EC50 was in the range of 10 to 100 nM.

As to `Cc1cc2c(N)nccc2c(C)c1CNC(=O)c1cnn(Cc2ncccn2)c1` [Example 83, N-((1-amino-5,7-dimethylisoquinolin-6-yl)methyl)-1-(pyrimidin-2-ylmethyl)-1H-pyrazole-4-carboxamide], the EC50 lay in the range of 100 to 1000 nM.

With `Cc1cc2c(N)nccc2c(C)c1CNc1cc2c(cn1)cnn2Cc1ccc(Cn2cccn2)cc1` [Example I-458, 6-(((1-(4-((1H-pyrazol-1-yl)methyl)benzyl)-1H-pyrazolo[4,3-c]pyridin-6-yl)amino)methyl)-5,7-dimethylisoquinolin-1-amine], the EC50 was in the range of 1 to 10 nM.

As for `Cc1cc2c(N)nccc2c(C)c1CNc1cc(OCc2ccc(-n3ccccc3=O)cc2)cnn1` [Example 438, 1-(4-(((6-(((1-amino-5,7-dimethylisoquinolin-6-yl)methyl)amino)pyridazin-4-yl)oxy)methyl)phenyl)pyridin-2(1H)-one], the EC50 was in the range of 1 to 10 nM.

For `Cc1cnn(Cc2ccc(Cn3cc(C(=O)NCc4c(C)cc5c(N)nccc5c4C)c(C(F)(F)F)n3)cc2)c1` [Example 184, N-((1-amino-5,7-dimethylisoquinolin-6-yl)methyl)-1-(4-((4-methyl-1H-pyrazol-1-yl)methyl)benzyl)-3-(trifluoromethyl)-1H-pyrazole-4-carboxamide], the EC50 was under 1 nM.

Consider `Cc1cc2c(N)nccc2c(C)c1CNc1cc(NCc2ccccc2)cnn1` [Example 448, N^3-((1-amino-5,7-dimethylisoquinolin-6-yl)methyl)-N5-benzylpyridazine-3,5-diamine], for which the 50% effective concentration (EC50) is 100 to 1000 nM.

Turning to `Cc1cc2c(N)nccc2c(C)c1CNc1nccn2cc(Cc3ccc4ccccc4c3)nc12` [Example 525, 5,7-dimethyl-6-(((2-(naphthalen-2-ylmethyl)imidazo[1,2-a]pyrazin-8-yl)amino)methyl)isoquinolin-1-amine], the EC50 lay in the range of 100 to 1000 nM.

For the molecule `Cc1cc2c(N)nccc2c(C)c1CNc1cc(NCc2ccc3cnccc3c2)ncn1` [Example 320, N^4-((1-amino-5,7-dimethylisoquinolin-6-yl)methyl)-N^6-(isoquinolin-6-ylmethyl)pyrimidine-4,6-diamine], the EC50 lay within 1 to 10 nM.

For the molecule `Cc1cc(Cn2cc(C(=O)NCc3c(C)cc4c(N)nccc4c3C)cn2)ccc1C1CC1` [Example 2, N-((1-amino-5,7-dimethylisoquinolin-6-yl)methyl)-1-(4-cyclopropyl-3-methylbenzyl)-1H-pyrazole-4-carboxamide], the EC50 lay in the range of 1 to 10 nM.

With `Cc1cc2c(N)nccc2c(C)c1CNC(=O)c1cnn(Cc2cn3cc(C4CC4)ccc3n2)c1` [Example 99, N-((1-amino-5,7-dimethylisoquinolin-6-yl)methyl)-1-((6-cyclopropylimidazo[1,2-a]pyridin-2-yl)methyl)-1H-pyrazole-4-carboxamide], the EC50 was under 1 nM.

As to `Cc1cc2c(N)nccc2c(C)c1CNc1nccnc1OCc1cn2cc(C3CC3)ccc2n1` [Example 287, 6-(((3-((6-cyclopropylimidazo[1,2-a]pyridin-2-yl)methoxy)pyrazin-2-yl)amino)methyl)-5,7-dimethylisoquinolin-1-amine], the EC50 lay within 10 to 100 nM.

As to `CC(C)=Cc1ccc2nc(Cn3cc(C(=O)NCc4c(C)cc5c(N)nccc5c4C)cn3)cn2c1` [Example 179, N-((1-amino-5,7-dimethylisoquinolin-6-yl)methyl)-1-((6-(2-methylprop-1-en-1-yl)imidazo[1,2-a]pyridin-2-y1)methyl)-1H-pyrazole-4-carboxamide], the EC50 lay within 1 to 10 nM.

For `Cc1ccc2nc(Cn3cc(C(=O)NCc4c(C)cc5c(NC(=O)OCC(C)C)nccc5c4C)cn3)cn2c1` [Example 5, isobutyl (5,7-dimethyl-6-((1-((6-methylimidazo[1,2-a]pyridin-2-yl)methyl)-1H-pyrazole-4-carboxamido)methyl)isoquinolin-1-yl)carbamate], the EC50 is 10 to 100 nM.

Take `Cc1cc2c(N)nccc2c(C)c1CNC(=O)c1cnn(Cc2ccc(Oc3cccn(C)c3=O)cc2)c1` [Example 18, N-((1-amino-5,7-dimethylisoquinolin-6-yl)methyl)-1-(4-((1-methyl-2-oxo-1,2-dihydropyridin-3-yl)oxy)benzyl)-1H-pyrazole-4-carboxamide]: the EC50 was under 1 nM.

As for `Cc1cc2c(N)nccc2c(C)c1CNc1cc(OCc2cc3cc(Cl)ccc3s2)cnn1` [Example 417, 6-(((5-((5-chlorobenzo[b]thiophen-2-yl)methoxy)pyridazin-3-yl)amino)methyl)-5,7-dimethylisoquinolin-1-amine, formic acid salt], the EC50 lay within 1 to 10 nM.

As for `Cc1cc2c(N)nccc2c(C)c1CNc1cc(OCc2cnc3ccccn23)cnn1` [Example 414, 6-(((5-(imidazo[1,2-a]pyridin-3-ylmethoxy)pyridazin-3-yl)amino)methyl)-5,7-dimethylisoquinolin-1-amine], the EC50 was over 1000 nM.

Turning to `Cc1cc2c(N)nccc2c(C)c1CNc1cc(C(F)(F)c2cn3cc(C4CC4)ccc3n2)ncn1` [Example 404, 6-(((6-((6-cyclopropylimidazo[1,2-a]pyridin-2-yl)difluoromethyl)pyrimidin-4-yl)amino)methyl)-5,7-dimethylisoquinolin-1-amine], the EC50 lay within 10 to 100 nM.

For the molecule `Cc1cc2c(N)nccc2c(C)c1CNC(=O)c1cnn(Cc2cc3cc(F)ccc3o2)c1` [Example 57, N-((1-amino-5,7-dimethylisoquinolin-6-yl)methyl)-1-((5-fluorobenzofuran-2-yl)methyl)-1H-pyrazole-4-carboxamide], the EC50 is 10 to 100 nM.

As for `Cc1cc2c(N)nccc2c(C)c1CNC(=O)c1cnn(Cc2ccc(CC(=O)N3CC4C(C3)C4(F)F)cc2)c1` (stereo not shown) [Example 214, N-((1-amino-5,7-dimethylisoquinolin-6-yl)methyl)-1-(4-(2-(6,6-difluoro-3-azabicyclo[3.1.0]hexan-3-yl)-2-oxoethyl)benzyl)-1H-pyrazole-4-carboxamide], the EC50 is under 1 nM.

Turning to `Cc1cc2c(N)nccc2c(C)c1CN1C(=O)c2ncc(NCc3cn4cc(C5CC5)ccc4n3)cc21` [Example 496, 7-((1-amino-5,7-dimethylisoquinolin-6-yl)methyl)-4-(((6-cyclopropylimidazo[1,2-a]pyridin-2-yl)methyl)amino)-2,7-diazabicyclo[4.2.0]octa-1,3,5-trien-8-one], the EC50 was 100 to 1000 nM.

`Cc1cc2c(N)nccc2c(C)c1CNC(=O)c1cnn(Cc2ccc(CC(=O)N3CCOCC3)cc2)c1` [Example 225, N-((1-amino-5,7-dimethylisoquinolin-6-y1)methyl)-1-(4-(2-morpholino-2-oxoethyl)benzyl)-1H-pyrazole-4-carboxamide]: the EC50 fell in the range of 1 to 10 nM.

On to `Cc1cc2c(N)nccc2c(C)c1CNc1cc(NCc2cc3ccccc3cn2)ncn1` [Example 315, N^4-((1-amino-5,7-dimethylisoquinolin-6-yl)methyl)-N^6-(isoquinolin-3-ylmethyl)pyrimidine-4,6-diamine], for which the EC50 was in the range of 1 to 10 nM.

Consider `Cc1cc2c(N)nccc2c(C)c1CNc1cc(OCc2cn3c(=O)n(C4CC4)ccc3n2)ncn1` [Example 397, 2-(((6-(((1-amino-5,7-dimethylisoquinolin-6-yl)methyl)amino)pyrimidin-4-yl)oxy)methyl)-6-cyclopropylimidazo[1,2-c]pyrimidin-5(6H)-one], for which the 50% effective concentration (EC50) lay in the range of 10 to 100 nM.
